From patent US10307420B2, “Treating sexual desire disorders with flibanserin” (Sprout Pharmaceuticals, Inc., priority 2001, dated 2019)

Key:
5HT2-receptor = settings: statement in the background, no value; cited from earlier work
5-HT1A receptor = molecular target: T1, 5-HT1A receptor (Homo sapiens, UniProt P08908); settings: statement in the background, no value; cited from earlier work
T1 sequence (P08908 1-422): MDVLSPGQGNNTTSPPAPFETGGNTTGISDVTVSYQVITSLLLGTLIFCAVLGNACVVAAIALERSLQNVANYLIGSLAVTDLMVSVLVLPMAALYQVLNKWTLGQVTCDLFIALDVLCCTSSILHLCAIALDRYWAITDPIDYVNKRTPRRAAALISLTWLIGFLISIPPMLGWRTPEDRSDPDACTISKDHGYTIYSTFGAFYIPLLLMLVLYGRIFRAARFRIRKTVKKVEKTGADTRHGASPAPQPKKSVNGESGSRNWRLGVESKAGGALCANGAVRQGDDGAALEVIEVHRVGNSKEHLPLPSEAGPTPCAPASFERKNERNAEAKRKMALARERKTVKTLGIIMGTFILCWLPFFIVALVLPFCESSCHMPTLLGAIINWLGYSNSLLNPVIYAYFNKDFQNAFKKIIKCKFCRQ

[1] = studies of male and female patients suffering from sexual dysfunction; format: in vivo, human patients
Source text: Accordingly, the instant invention relates to the use of flibanserin, optionally in form of the pharmacologically acceptable acid addition salts thereof for the preparation of a medicament for the treatment of disorders of sexual desire.

Compound: O=c1[nH]c2ccccc2n1CCN1CCN(c2cccc(C(F)(F)F)c2)CC1 [Flibanserin, 1-[2-(4-(3-trifluoromethyl-phenyl)piperazin-1-yl)ethyl]-2,3-dihydro-1H-benzimidazol-2-one]
- affinity for the 5HT2-receptor (5HT2-receptor): shows affinity
- affinity for the 5-HT1A receptor (5-HT1A receptor): shows affinity
- sexual desire enhancing properties [1]: displays sexual desire enhancing properties
